Source: PubChem BioAssay AID1845215 (Molecular Pharmacology Branch, DTP, NCI, 2023)

Tested on: SW 1271 complex tumor spheroid viability
Test: Anticancer human tumor SW 1271 cell line growth inhibition;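 note: spheroids exposed to agents for seven days before readout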;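 for viability, T/C: percent of DMSO vehicle control luminescence so 100% = vehicle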
Conditions: for IC50: curve of first compound; for viability, T/C: stronger effect = lower value
Outline: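 Complex tumor spheroids combined malignant cells with endothelial cells and mesenchymal stem cells. DNA-damaging drugs and DNA repair inhibitors were tested alone and in combination, at half-log dilutions down from clinical Cmax (top 10 microM if Cmax unknown), 0.25% DMSO final.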

[1] = second compound 0.003 µM, first compound 0.0949 µM
[2] = second compound 0.003 µM, first compound 0.3 µM
[3] = second compound 0.003 µM, first compound 0.949 µM
[4] = second compound 0.003 µM, first compound 3 µM
[5] = second compound 0.00949 µM, first compound 0.0949 µM
[6] = second compound 0.00949 µM, first compound 0.3 µM
[7] = second compound 0.00949 µM, first compound 0.949 µM
[8] = second compound 0.00949 µM, first compound 3 µM
[9] = second compound 0.03 µM, first compound 0.0949 µM
[10] = second compound 0.03 µM, first compound 0.3 µM
[11] = second compound 0.03 µM, first compound 0.949 µM
[12] = second compound 0.03 µM, first compound 3 µM
[13] = second compound 0.0949 µM, first compound 0.0949 µM
[14] = second compound 0.0949 µM, first compound 0.3 µM
[15] = second compound 0.0949 µM, first compound 0.949 µM
[16] = second compound 0.0949 µM, first compound 3 µM
[17] = second compound 0.3 µM, first compound 0.0949 µM
[18] = second compound 0.3 µM, first compound 0.3 µM
[19] = second compound 0.3 µM, first compound 0.949 µM
[20] = second compound 0.3 µM, first compound 3 µM
[21] = second compound 0.003 µM, first compound 9.49 µM
[22] = second compound 0.003 µM, first compound 30 µM

For `Cc1cc(C)c(CNC(=O)c2cc(-c3ccc(CN4CCOCC4)cc3)cc3c2cnn3C2CCCC2)c(=O)[nH]1` + CC[C@@]1(O)C(=O)OCc2c1cc1n(c2=O)Cc2cc3c(CN(C)C)c(O)ccc3nc2-1, the IC50 (second compound 0.003 µM) was 2.12 µM, the IC50 (second compound 0.00949 µM) was 0.0329 µM and the IC50 (second compound 0.03 µM) was under 0.0316 µM. It also gave an IC50 (second compound 0.0949 µM) of under 0.0316 µM, an IC50 (second compound 0.3 µM) of under 0.0316 µM and a viability, T/C (second compound 0.003 µM, first compound 0.0316 µM) of 83.2%. The viability, T/C (second compound 0.003 µM, first compound 0.1 µM) was 84.7%, the viability, T/C (second compound 0.003 µM, first compound 0.316 µM) was 70.6% and the viability, T/C (second compound 0.003 µM, first compound 1 µM) was 59.8%. The viability, T/C (second compound 0.003 µM, first compound 3.16 µM) was 45.5%, the viability, T/C (second compound 0.003 µM, first compound 10 µM) was 34.9% and the viability, T/C (second compound 0.00949 µM, first compound 0.0316 µM) was 51.3%. The viability, T/C (second compound 0.00949 µM, first compound 0.1 µM) was 38.2%, the viability, T/C (second compound 0.00949 µM, first compound 0.316 µM) was 32.5% and the viability, T/C (second compound 0.00949 µM, first compound 1 µM) was 26.9%. It also gave a viability, T/C (second compound 0.00949 µM, first compound 3.16 µM) of 20.4%, a viability, T/C (second compound 0.00949 µM, first compound 10 µM) of 16.3% and a viability, T/C (second compound 0.03 µM, first compound 0.0316 µM) of 28.2%. The viability, T/C (second compound 0.03 µM, first compound 0.1 µM) was 26.4%, the viability, T/C (second compound 0.03 µM, first compound 0.316 µM) was 24.4% and the viability, T/C (second compound 0.03 µM, first compound 1 µM) was 27%. For the same compound, the viability, T/C (second compound 0.03 µM, first compound 3.16 µM) was 24.9%, the viability, T/C (second compound 0.03 µM, first compound 10 µM) was 22.4% and the viability, T/C (second compound 0.0949 µM, first compound 0.0316 µM) was 30.7%. The viability, T/C (second compound 0.0949 µM, first compound 0.1 µM) was 27%, the viability, T/C (second compound 0.0949 µM, first compound 0.316 µM) was 27.7% and the viability, T/C (second compound 0.0949 µM, first compound 1 µM) was 25.6%. It also gave a viability, T/C (second compound 0.0949 µM, first compound 3.16 µM) of 23.5%, a viability, T/C (second compound 0.0949 µM, first compound 10 µM) of 22.6% and a viability, T/C (second compound 0.3 µM, first compound 0.0316 µM) of 15.7%. The viability, T/C (second compound 0.3 µM, first compound 0.1 µM) was 12.8%, the viability, T/C (second compound 0.3 µM, first compound 0.316 µM) was 11% and the viability, T/C (second compound 0.3 µM, first compound 1 µM) was 9.77%. The viability, T/C (second compound 0.3 µM, first compound 3.16 µM) was 6.12% and the viability, T/C (second compound 0.3 µM, first compound 10 µM) was 4.56%.
Work on `CNCc1ccc(-c2cc(-c3nc(-c4ccc(S(=O)(=O)C(C)C)cc4)cnc3N)on2)cc1` + CC[C@@]1(O)C(=O)OCc2c1cc1n(c2=O)Cc2cc3c(CN(C)C)c(O)ccc3nc2-1 yielded an IC50 (second compound 0.003 µM) of 0.0393 µM, an IC50 (second compound 0.00949 µM) of under 0.00949 µM and an IC50 (second compound 0.03 µM) of under 0.00949 µM. The IC50 (second compound 0.0949 µM) was under 0.00949 µM, the IC50 (second compound 0.3 µM) was under 0.00949 µM and the viability, T/C (second compound 0.003 µM, first compound 0.00949 µM) was 84.7%. It also gave a viability, T/C (second compound 0.003 µM, first compound 0.03 µM) of 60.7%, a viability, T/C [1] of 21.3% and a viability, T/C [2] of 27.2%. For the same compound, the viability, T/C [3] was 5.87%, the viability, T/C [4] was 0.11% and the viability, T/C (second compound 0.00949 µM, first compound 0.00949 µM) was 38.9%. The viability, T/C (second compound 0.00949 µM, first compound 0.03 µM) was 29%, the viability, T/C [5] was 19.9% and the viability, T/C [6] was 11.5%. It also gave a viability, T/C [7] of 9.07%, a viability, T/C [8] of 0.1% and a viability, T/C (second compound 0.03 µM, first compound 0.00949 µM) of 22.5%. For the same compound, the viability, T/C (second compound 0.03 µM, first compound 0.03 µM) was 23.3%, the viability, T/C [9] was 20.2% and the viability, T/C [10] was 34.2%. The viability, T/C [11] was 12%, the viability, T/C [12] was 0.09% and the viability, T/C (second compound 0.0949 µM, first compound 0.00949 µM) was 23.2%. For the same compound, the viability, T/C (second compound 0.0949 µM, first compound 0.03 µM) was 25.8%, the viability, T/C [13] was 21.6% and the viability, T/C [14] was 20.5%. The viability, T/C [15] was 10.8%, the viability, T/C [16] was 0.09% and the viability, T/C (second compound 0.3 µM, first compound 0.00949 µM) was 18.1%. For the same compound, the viability, T/C (second compound 0.3 µM, first compound 0.03 µM) was 17%, the viability, T/C [17] was 20.4% and the viability, T/C [18] was 10.8%. It also gave a viability, T/C [19] of 1.75% and a viability, T/C [20] of 7.62%.
`O=C(c1cc(Cc2n[nH]c(=O)c3ccccc23)ccc1F)N1CCN(C(=O)C2CC2)CC1` + COc1cc2c(cc1O)CCNC21CSC2c3c(OC(C)=O)c(C)c4c(c3C(COC1=O)N1C(O)C3Cc5cc(C)c(OC)c(O)c5C(C21)N3C)OCO4 showed an IC50 (second compound 30 pM) of 1.36 µM, an IC50 (second compound 94.9 pM) of 0.206 µM and an IC50 (second compound 0.0003 µM) of under 0.0949 µM. For the same compound, the IC50 (second compound 0.000949 µM) was under 0.0949 µM, the IC50 (second compound 0.003 µM) was under 0.0949 µM and the viability, T/C (second compound 30 pM, first compound 0.0949 µM) was 87.3%. For the same compound, the viability, T/C (second compound 30 pM, first compound 0.3 µM) was 70.1%, the viability, T/C (second compound 30 pM, first compound 0.949 µM) was 57.6% and the viability, T/C (second compound 30 pM, first compound 3 µM) was 36.5%. The viability, T/C (second compound 30 pM, first compound 9.49 µM) was 25.3%, the viability, T/C (second compound 30 pM, first compound 30 µM) was 11.8% and the viability, T/C (second compound 94.9 pM, first compound 0.0949 µM) was 54.3%. For the same compound, the viability, T/C (second compound 94.9 pM, first compound 0.3 µM) was 53.6%, the viability, T/C (second compound 94.9 pM, first compound 0.949 µM) was 31.2% and the viability, T/C (second compound 94.9 pM, first compound 3 µM) was 29.9%. The viability, T/C (second compound 94.9 pM, first compound 9.49 µM) was 28.6%, the viability, T/C (second compound 94.9 pM, first compound 30 µM) was 11.7% and the viability, T/C (second compound 0.0003 µM, first compound 0.0949 µM) was 28%. It also gave a viability, T/C (second compound 0.0003 µM, first compound 0.3 µM) of 35.6%, a viability, T/C (second compound 0.0003 µM, first compound 0.949 µM) of 32.8% and a viability, T/C (second compound 0.0003 µM, first compound 3 µM) of 31.1%. For the same compound, the viability, T/C (second compound 0.0003 µM, first compound 9.49 µM) was 24.2%, the viability, T/C (second compound 0.0003 µM, first compound 30 µM) was 3.66% and the viability, T/C (second compound 0.000949 µM, first compound 0.0949 µM) was 4.23%. For the same compound, the viability, T/C (second compound 0.000949 µM, first compound 0.3 µM) was 5.88%, the viability, T/C (second compound 0.000949 µM, first compound 0.949 µM) was 3.15% and the viability, T/C (second compound 0.000949 µM, first compound 3 µM) was 1.8%. It also gave a viability, T/C (second compound 0.000949 µM, first compound 9.49 µM) of 1.43%, a viability, T/C (second compound 0.000949 µM, first compound 30 µM) of 0.13% and a viability, T/C [1] of 0.19%. The viability, T/C [2] was 0.19%, the viability, T/C [3] was 0.12% and the viability, T/C [4] was 0.13%. For the same compound, the viability, T/C [21] was 0.15% and the viability, T/C [22] was 0.21%.
`O=C(c1cc(Cc2n[nH]c(=O)c3ccccc23)ccc1F)N1CCN(C(=O)C2CC2)CC1` + CC[C@@]1(O)C(=O)OCc2c1cc1n(c2=O)Cc2cc3c(CN(C)C)c(O)ccc3nc2-1 showed an IC50 (second compound 0.003 µM) of under 0.0949 µM, an IC50 (second compound 0.00949 µM) of under 0.0949 µM and an IC50 (second compound 0.03 µM) of under 0.0949 µM. For the same compound, the IC50 (second compound 0.0949 µM) was under 0.0949 µM, the IC50 (second compound 0.3 µM) was under 0.0949 µM and the viability, T/C [1] was 34.5%. It also gave a viability, T/C [2] of 42.2%, a viability, T/C [3] of 40.8% and a viability, T/C [4] of 27.9%. It also gave a viability, T/C [21] of 27.4%, a viability, T/C [22] of 25.8% and a viability, T/C [5] of 27%. The viability, T/C [6] was 27%, the viability, T/C [7] was 28.1% and the viability, T/C [8] was 25.3%. For the same compound, the viability, T/C (second compound 0.00949 µM, first compound 9.49 µM) was 29.2%, the viability, T/C (second compound 0.00949 µM, first compound 30 µM) was 28.3% and the viability, T/C [9] was 25%. The viability, T/C [10] was 25.5%, the viability, T/C [11] was 29.5% and the viability, T/C [12] was 37.1%. For the same compound, the viability, T/C (second compound 0.03 µM, first compound 9.49 µM) was 26.1%, the viability, T/C (second compound 0.03 µM, first compound 30 µM) was 29.7% and the viability, T/C [13] was 34.8%. The viability, T/C [14] was 26.4%, the viability, T/C [15] was 28.4% and the viability, T/C [16] was 27.1%. It also gave a viability, T/C (second compound 0.0949 µM, first compound 9.49 µM) of 28.7%, a viability, T/C (second compound 0.0949 µM, first compound 30 µM) of 28% and a viability, T/C [17] of 16.1%. For the same compound, the viability, T/C [18] was 13.4%, the viability, T/C [19] was 12.1% and the viability, T/C [20] was 10.5%. It also gave a viability, T/C (second compound 0.3 µM, first compound 9.49 µM) of 19% and a viability, T/C (second compound 0.3 µM, first compound 30 µM) of 8.08%.
